Measured values taken from PMC6628362, “A New Strategy for Glioblastoma Treatment: In Vitro and In Vivo Preclinical Characterization of Si306, a Pyrazolo[3,4-d]Pyrimidine Dual Src/P-Glycoprotein Inhibitor” (Cancers, 2019).
“And” between values parts separate entries of the source, which are not always exact repeats. Equal values may be shown once. Marks after values point to notes of the source that are not given here. Values belong to the molecule of their own block, whether it stands above or below them.

Assays:
[1] = target: P-gp (Homo sapiens, UniProt P08183); assay: Rho 123 accumulation assay (P-gp inhibition) in U87-TxR cells; conditions: 30 min; for IC50: IC50 of P-gp inhibition, Rho 123 accumulation; for P-gp activity (Rho 123 intracellular accumulation): 5 µM
Description: At the end of the accumulation period, the cells were pelleted by centrifugation, washed with PBS and placed in cold PBS. The samples were kept on ice in a dark setting until the analysis on CyFlow Space Partec flow-cytometer (Sysmex Partec GmbH, Germany). […] A minimum of 10,000 events was assayed for each sample and the obtained results were analyzed using Summit Dako Software (ver. 4.3, Fort Collins, CO, USA).

[2] = tested on: U87; assay: MTT cell growth inhibition, U87; format: cell-based, Human; conditions: 72 h, n = 3
Description: (§1) Human GBM cell lines U87 and LN-229 were purchased from the American Type Culture Collection, Rockville, MD, USA. U87-TxR cells were selected from U87 cells by continuous exposure to increasing concentrations of PTX [76]. LN-299, U87 and U87-TxR cells were grown in Minimum Essential Medium with 10% fetal bovine serum, 2 mM L-glutamine and 5000 U/mL penicillin, 5 mg/mL streptomycin solution. Cell lines were maintained at 37 °C in a humidified 5% CO2 atmosphere. They were sub-cultured at 72 h intervals using 0.25% trypsin/EDTA and 16,000 cells/cm^2 were seeded into a fresh medium.
(§2) MTT assay was used to assess the viability of U87 and U87-TxR cells (AppliChem GmbH, Taufkirchen, Germany). After reaching the confluence in 25 cm^2 tissue flasks, U87 and U87-TxR cells were trypsinized. Cells were seeded at the optimal density determined in initial experiments: 4000 cell/well into flat-bottomed 96-well tissue culture plates. Following the overnight incubation, cells were treated with Si306, pro-Si306 and dasatinib (1–25 µM) for 72 h. In addition, the combined effects of Si306 and pro-Si306 with PTX were evaluated in MDR GBM cells. To that end, two concentrations of Si306 and pro-Si306 (0.2 μM and 0.5 μM) were combined with increasing concentrations of PTX (0.1–2 μM) in simultaneous treatment. The sensitization of U87-TxR cells to PTX was studied after 72 h. Briefly, MTT was added to each well in a final concentration of 0.2 mg/mL for 4 h to induce the formation of the formazan in cells with intact/viable mitochondria. Then, produced formazan was dissolved in DMSO, and the absorbance was measured at 540 nm on a microplate reader (LKB 5060-006 Micro Plate Reader, Vienna, Austria). IC50 values were calculated by nonlinear regression analysis using GraphPad Prism 6.0 for Windows (GraphPad Software, La Jolla, CA, USA).

[3] = target: T1, CYP3A4 (Homo sapiens, UniProt P08684); assay: CYP3A4 inhibition in human liver microsomes (testosterone 6β-hydroxylation); format: in vitro ADME
T1 construct: Incubations were carried out in a mix containing human liver microsomes (1 mg/mL of protein); from tissue; host or cells: human liver microsomes
Description: The inhibition of cytochrome P450 3A4 isoform by Si306 and pro-Si306 was measured by determining its activity on the substrate testosterone.
The activity of CYP3A4 was evaluated by measuring the 6β-hydroxylated testosterone formation (CYP3A4-specific reaction). The amount of 6β-hydroxylated metabolite was assessed in the absence and presence of Si306, pro-Si306 and ketoconazole (testosterone concentration of 100 μM in phosphate buffer 0.025 M, pH 7.4). […] Ketoconazole was used as standard selective inhibitor of CYP3A4 isoenzyme. Incubations were carried out in a mix containing human liver microsomes (1 mg/mL of protein) in phosphate buffer 0.025 M, pH 7.4, NADPH (200 μM) previously solubilized in a MgCl2 48 mM solution. The final incubation volume was 0.25 mL. After a 40 min-incubation period at 37 °C, the reaction was stopped by adding 1 mL of acetonitrile in the presence of corticosterone 2 μM as internal standard. The samples were centrifuged for 20 min at 5000 rpm. Concentrations of testosterone and its metabolite 6β-hydroxytestosterone were assessed by the HPLC method with UV detection. Calibration curve for quantitative analysis of 6β-hydroxytestosterone in the samples was obtained using commercial 6β-hydroxytestosterone purchased from Sigma Aldrich. For the statistical analysis, GraphPad InStat 3.0 (GraphPad Software, San Diego, CA, USA) was used.

[4] = tested on: Alpha-1-acid glycoprotein (AGP); assay: Binding fluorimetric assay, AGP; format: in vitro ADME; conditions: 10 µM AGP, fluorescence quenching
Description: (§3) In order to determine the binding affinity for Si306 and pro-Si306 to HSA (human serum albumin) and AGP (alpha-1-acid glycoprotein), the protein fluorescence has been monitored by spectroscopy. The quantitative analysis was performed using black 96 multiwell plates: in each well, a fixed concentration of HSA or AGP (10 µM in phosphate buffer 1 mM) was added with different amounts of the tested compound (0.1 µM to 500 µM). Plates were gently shacked and after 30 min at room temperature for equilibration, spectra were recorded from 300 to 400 nm, after excitation at 295 nm, by using a Perkin Elmer EnVision Multilabel Reader 2014 spectrofluorimeter. Finally, spectra were acquired with EnVision Manager ver.1.13 software (Walthman, MA, USA). The obtained non fluorescence quenching percentages were plotted against drug concentrations and the relative KD values were calculated using GraphPad software (version 6.0).

[5] = set-up: method as in PMID 28650650; conditions: pro-Si306 administrated p.o.; cited from earlier work
[6] = set-up: method as in PMID 28650650; conditions: cited from earlier work
[7] = tested on: U87-TxR; assay: MTT cell growth inhibition, MDR U87-TxR; format: cell-based, Human; conditions: 72 h, n = 3
Description: as §1, §2

[8] = tested on: BT-138; assay: Cell viability, BT-138 (Table S1); format: cell-based; conditions: BT-138, 24 h
Description: 1. Cell Growth Inhibition by Dasatinib, Si306 and Pro-Si306
GB cell lines BT138, T98G and A172 were treated with Si306 and pro-Si306 at concentrations ranging from 1 to 100 µM, or with DMSO as a control. Cell viability was evaluated 72 h after treatment for T98G and A172 cell lines and after 24 h for BT-138. In table S1 the IC50 values are reported.
Table S1. Sensitivity of glioblastoma multiforme (GBM) cells to Si306 and pro-Si306 expressed as IC50 […]
Figure S1. Rho 123 accumulation in U87-TxR cells treated with increasing concentrations of TQ (A), Dex-VER (B), Si306 (C) and pro-Si306 (D).
(1 picture or pasted object on this page, not shown here)

[9] = tested on: U87-TxR cells; assay: Reversal of paclitaxel resistance, MTT combination treatment; format: cell-based, Human; conditions: 72 h
Description: as §2

[10] = target: Human Serum Albumin (HSA) (Homo sapiens, UniProt P02768); assay: Binding fluorimetric assay, HSA; format: in vitro ADME; conditions: 10 µM HSA, fluorescence quenching
Description: as §3

[11] = tested on: LN-229; assay: MTT cell growth inhibition, LN-229; format: cell-based, Human; conditions: LN-229, MTT, n = 3
[12] = set-up: method as in PMID 17429625; conditions: mice; cited from earlier work
[13] = tested on: MCF-7/Adr; set-up: method as in PMID 25482933; conditions: read-out: IC50 cell growth; cited from earlier work
[14] = tested on: P-gp; assay: Flow-cytometric analysis of P-glycoprotein expression in U87-TxR cells; format: cell-based, Human; conditions: 5 µM, 72 h, flow cytometry
Description: To assess the P-glycoprotein expression level in MDR GBM cells, flow-cytometry was employed. U87-TxR cells seeded in adherent 6-well plates were treated with 5 µM Si306, pro-Si306 or dasatinib for 72 h. Then, cells were collected by trypsinization, washed in PBS, and then directly immuno-stained by FITC-conjugated anti-P-gp antibody (BD Biosciences, Winnersh, Berkshire, UK). To discriminate the level of background fluorescence, an isotype control IgG2bκ (Abcam, Cambridge, United Kingdom) was used. The fluorescence of FITC-conjugated anti-P-gp was analyzed on assessed on the fluorescence channel 1 (FL1) of the CyFlow Space Partec flow-cytometer (Sysmex Partec GmbH, Görlitz, Germany). After gating to exclude the cell debris and dead cells, a minimum of 10,000 cells per sample was assayed. Summit Dako Software was used for the analyses of results obtained by flow-cytometry.

[15] = tested on: MCF-7/Adr; set-up: method as in PMID 25482933; conditions: 0.5 μM dasatinib, 72 h; cited from earlier work

Chain of P-gp (Homo sapiens, UniProt P08183) (P08183 whole entry): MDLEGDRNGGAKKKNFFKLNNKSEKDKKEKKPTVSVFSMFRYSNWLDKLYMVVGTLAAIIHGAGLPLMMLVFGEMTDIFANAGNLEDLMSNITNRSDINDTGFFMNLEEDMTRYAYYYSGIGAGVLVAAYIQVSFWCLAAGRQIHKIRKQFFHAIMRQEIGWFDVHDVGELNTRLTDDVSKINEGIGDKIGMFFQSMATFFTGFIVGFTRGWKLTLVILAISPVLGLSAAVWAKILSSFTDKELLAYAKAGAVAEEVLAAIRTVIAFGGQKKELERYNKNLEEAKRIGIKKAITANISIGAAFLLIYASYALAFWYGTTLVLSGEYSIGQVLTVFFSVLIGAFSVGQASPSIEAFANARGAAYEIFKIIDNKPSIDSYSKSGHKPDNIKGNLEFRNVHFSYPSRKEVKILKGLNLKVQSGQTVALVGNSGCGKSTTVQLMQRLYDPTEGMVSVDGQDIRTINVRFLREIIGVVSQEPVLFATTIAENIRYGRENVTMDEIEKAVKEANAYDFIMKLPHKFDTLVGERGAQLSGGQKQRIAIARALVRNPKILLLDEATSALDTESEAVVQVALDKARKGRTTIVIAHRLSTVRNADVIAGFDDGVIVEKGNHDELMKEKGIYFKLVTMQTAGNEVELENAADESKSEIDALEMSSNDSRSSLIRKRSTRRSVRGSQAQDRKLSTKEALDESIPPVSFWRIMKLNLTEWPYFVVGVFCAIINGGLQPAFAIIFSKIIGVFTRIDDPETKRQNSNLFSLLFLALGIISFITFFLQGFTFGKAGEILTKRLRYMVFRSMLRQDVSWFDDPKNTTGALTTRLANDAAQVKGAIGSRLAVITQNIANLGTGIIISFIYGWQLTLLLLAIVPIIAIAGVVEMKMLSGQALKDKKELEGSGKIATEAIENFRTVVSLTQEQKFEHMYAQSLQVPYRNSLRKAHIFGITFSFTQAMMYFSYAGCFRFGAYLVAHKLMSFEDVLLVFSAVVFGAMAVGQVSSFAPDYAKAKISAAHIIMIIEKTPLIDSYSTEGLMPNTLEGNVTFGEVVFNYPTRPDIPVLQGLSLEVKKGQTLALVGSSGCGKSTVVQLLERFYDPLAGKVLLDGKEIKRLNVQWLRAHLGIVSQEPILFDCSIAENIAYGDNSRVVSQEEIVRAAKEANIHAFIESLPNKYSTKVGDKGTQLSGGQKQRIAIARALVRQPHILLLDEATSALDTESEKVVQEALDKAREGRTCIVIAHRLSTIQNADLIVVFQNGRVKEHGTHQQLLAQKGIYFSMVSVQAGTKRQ
T1 sequence (P08684 whole entry): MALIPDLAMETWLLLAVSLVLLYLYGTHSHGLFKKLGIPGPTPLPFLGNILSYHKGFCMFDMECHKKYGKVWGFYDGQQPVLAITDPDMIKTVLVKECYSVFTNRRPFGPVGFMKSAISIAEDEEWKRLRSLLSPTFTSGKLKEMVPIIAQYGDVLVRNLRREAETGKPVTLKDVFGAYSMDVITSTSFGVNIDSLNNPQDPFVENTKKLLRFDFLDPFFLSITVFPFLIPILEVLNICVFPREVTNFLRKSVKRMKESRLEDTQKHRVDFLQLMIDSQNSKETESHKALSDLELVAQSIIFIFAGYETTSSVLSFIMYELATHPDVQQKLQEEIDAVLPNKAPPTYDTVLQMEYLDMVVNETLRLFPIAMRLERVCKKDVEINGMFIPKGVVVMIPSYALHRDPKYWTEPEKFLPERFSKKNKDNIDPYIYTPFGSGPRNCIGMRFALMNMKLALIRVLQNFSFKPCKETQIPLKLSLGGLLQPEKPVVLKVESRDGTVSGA
Chain of Human Serum Albumin (HSA) (P02768 25-609): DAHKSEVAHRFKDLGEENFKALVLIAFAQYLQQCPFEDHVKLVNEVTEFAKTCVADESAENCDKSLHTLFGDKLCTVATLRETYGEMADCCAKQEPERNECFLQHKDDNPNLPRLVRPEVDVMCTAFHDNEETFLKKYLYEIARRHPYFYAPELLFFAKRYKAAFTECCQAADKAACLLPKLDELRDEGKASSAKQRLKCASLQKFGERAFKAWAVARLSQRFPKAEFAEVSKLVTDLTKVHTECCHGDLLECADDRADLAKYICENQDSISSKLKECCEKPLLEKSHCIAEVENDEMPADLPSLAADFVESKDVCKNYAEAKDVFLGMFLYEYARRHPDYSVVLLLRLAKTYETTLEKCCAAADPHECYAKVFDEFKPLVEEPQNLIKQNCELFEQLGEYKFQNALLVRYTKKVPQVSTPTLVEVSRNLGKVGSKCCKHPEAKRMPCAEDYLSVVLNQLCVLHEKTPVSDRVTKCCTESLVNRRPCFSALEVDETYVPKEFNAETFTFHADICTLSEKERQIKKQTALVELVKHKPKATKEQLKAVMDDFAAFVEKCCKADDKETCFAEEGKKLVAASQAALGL

IC50 ([1]; TQ values in nM (footnote a)): < 1 nM
SMILES: COc1cc2c(cc1OC)CN(CCc1ccc(NC(=O)c3cc(OC)c(OC)cc3NC(=O)c3cnc4ccccc4c3)cc1)CC2 [TQ, tariquidar, reference compound]

IC50 [2]: 3.04 ± 0.343 µM
IC50 ([2]; Homo sapiens, U-87 MG): ~3 µM
inhibition at 40 min ([3]; pH 7.4, probe testosterone 100 μM (6β-hydroxylation), at a lower concentration (1–50 μM range)): -15%
interaction with CYP3A4 ([3]; up to 50 μM): do not interact with CYP3A4
BMAX [4]: 96.69 ± 1.5
Kd at 30 min ([4]; alpha-1-acid glycoprotein (10 µM) in phosphate buffer): 9.28 ± 0.7 µM
P-gp activity (Rho 123 intracellular accumulation) [1]: significant suppression of P-gp activity
IC50 [1]: 3800 nM and 3750 nM
IC50 ([7]; Homo sapiens, U87-TxR): 3.42 ± 0.359 µM
IC50 [8]: 30.7 ± 4.75 µM
BMAX [10]: 78.00 ± 4.2
Kd [10]: 21.4 ± 4.5 µM
SMILES: CN1CCN(CCOC(=O)N(c2cccc(Br)c2)c2nc(SCCN3CCOCC3)nc3c2cnn3CC(Cl)c2ccccc2)CC1 (stereo not shown) [pro-Si306]
detection in plasma and brain [5]: detected neither into the plasma nor in the brain
solubility [6]: enhanced solubility
Relative Reversal of PTX resistance ([9]; 0.2 µM of the compound): 4.47 ***
Relative Reversal of PTX resistance ([9]; 0.5 µM of the compound): 7.98
Relative Reversal of PTX resistance ([9]; 0.5 µM of the compound, listed as Pro-Si306): 7.98 ***
IC50 ([11]; Homo sapiens, LN-229, 72 h): 3.07 ± 0.272 µM

SMILES: Cc1nc(Nc2ncc(C(=O)Nc3c(C)cccc3Cl)s2)cc(N2CCN(CCO)CC2)n1 [Dasatinib, dasatinib, reference compound]
IC50 [2]: 6.14 ± 0.464 µM
IC50 ([2]; Homo sapiens, U-87 MG): 6.1 µM
oral bioavailability [12]: 14%
P-gp activity (Rho 123 intracellular accumulation) [1]: did not show a similar activity
IC50 [7]: 8.52 ± 0.691 µM
IC50 ([7]; Homo sapiens, U87-TxR): 8.5 µM
IC50 [13]: 40 µM
P-gp expression [14]: increased P-gp expression
IC50 ([11]; Homo sapiens, LN-229, 72 h): 24.7 µM
IC50 ([11]; 72 h): 24.7 ± 1.03 µM
reversal of doxorubicin resistance [15]: 3.35 fold

IC50 ([9]; Homo sapiens, PTX alone, read-out: IC50 ± S.D. for PXT): 2.84 ± 0.358 µM
SMILES: CC(=O)O[C@H]1C(=O)[C@@]2(C)[C@H]([C@H](OC(=O)c3ccccc3)[C@]3(O)C[C@H](OC(=O)[C@H](O)[C@@H](NC(=O)c4ccccc4)c4ccccc4)C(C)=C1C3(C)C)[C@]1(OC(C)=O)CO[C@@H]1C[C@@H]2O [PTX, paclitaxel, reference compound]
